# Data from patent US20220354825A1, “PHARMACEUTICAL COMPOSITION FOR PREVENTION OR TREATMENT OF INFLAMMATORY DISEASES COMPRISING NAPHTHOQUINONE DERIVATIVE” (LMITO THERAPEUTICS INC., priority 2019, published 2022).
# What was measured:
# NQO1 = NQO1 (Homo sapiens, UniProt P15559); experiment: In vitro NQO1 enzyme activity assay (cytochrome C reduction); format: biochemical; conditions: NQO1 2 ng
# Experimental: In order to evaluate the enzymatic activities of compounds on NQO1, the experiments were performed as follows:
# A compound to measure NQO1 enzyme activity was dissolved in DMSO to prepare a 10 mM stock solution, which was then diluted with DMSO to prepare a working solution at a concentration of 250 μM. For an enzyme reaction solution, 50 μL of 1.54 mM cytochrome C solution was added to 900 μL of 50 mM Tris-HCl (pH 7.5) solution containing 0.14% BSA, and then the prepared working solution at 250 μM was added. After adding 20 μL of 100 ng/ml NQO1 protein, […] solution was added so as to adjust the total volume to 1 mL, and then the change of absorbance was measured at 550 nm for 10 minutes. The change of absorbance was measured at 550 nm for 10 minutes using 1 mL cuvette. The reaction rate was observed through the increase in absorbance as cytochrome C was reduced at 550 nm for 10 minutes, to obtain an absorbance value, and the activity for NQO1 was measured as the reduced amount of cytochrome C (nmol reduced cytochrome C/min/μg NQO1 protein).
# Absorption coefficient of Cytochrome C: 21.1 (μmol/mL)-1 cm^−1
# Equipment=Cary 100 UV-Vis Spectrophotometer
# [1] = system: primary bone marrow-derived macrophages (BMDMs); experiment: NAD+ measurement in macrophages after LPS/ATP; format: cell-based, C57BL/6 mouse; conditions: LPS/ATP + 1, 5, 10 μM compound
# Experimental: (§1) The primary bone marrow-derived macrophages (BMDMs) isolated from C57BL/6 mouse were incubated in DMEM medium involving macrophage colony-stimulating factor (M-CSF; R&D Systems, 416-ML) during 3 to 5 days. NAD^+ production and NAD^+/NADH ratio were measured in isolated BMDMs through using NAD/NADH Assay Kit(ab65348) supplied by Abcam company. All assays were performed according to the manufacturer's product manual.
# FIGS. 1 to 5 show NAD^+ changes in the macrophage when treated with compounds 6, 16, 17, 22 and 27 respectively (in order from left in the figure: Untreatment, LPS/ATP, LPS/ATP+1 μM compound, LPS/ATP+5 μM compound, and LPS/ATP+10 μM compound).
# [2] = system: primary bone marrow-derived macrophages (BMDMs); experiment: NAD+/NADH measurement in macrophages after LPS/ATP; format: cell-based, C57BL/6 mouse; conditions: LPS/ATP + 1, 5, 10 μM compound
# Experimental: as §1, with “ratio was” for “ratio were”
# FIGS. 6 to 10 show NAD^+/NADH ratio changes in the macrophage when treated with compounds 6, 16, 17, and 27 respectively (in order from left in the figure: Untreatment, LPS/ATP, LPS/ATP+1 μM compound, LPS/ATP+5 μM compound, and LPS/ATP+10 μM).
# [3] = system: primary bone marrow-derived macrophages (BMDMs); experiment: OCR (oxygen consumption rate) measurement, Seahorse XF24; format: cell-based, C57BL/6 mouse; conditions: macrophages after treatment of LPS and ATP
# Experimental: The primary bone marrow-derived macrophages (BMDMs) isolated from C57BL/6 mouse were incubated in DMEM medium involving macrophage colony-stimulating factor (M-CSF; R&D Systems, 416-ML) during 3 to 5 days. OCR was measured using Seahorse XF24 Extracellular Flux Analyzer in isolated bone marrow-derived macrophages.
# [4] = system: DSS-induced acute colitis mouse model; experiment: Efficacy in ulcerative colitis mouse model (DSS-induced acute colitis); format: in vivo, C57BL/6 female mouse; conditions: 5% DSS for 6 days
# Experimental: DSS-induced acute colitis mouse model was prepared using 6-week-old C57BL/6 female mouse in the following method from Opal S M et al., Jama., 309(11):1154-1162(2013) and Hotchkiss R S et al., Journal of immunology., 176(9):5471-5477(2006).
# The clinical score in colitis were measured daily for body weight, rectal bleeding, total bleeding loss, and fecal concentration during colitis induction.
# For immunohistochemistry of tissue section, mouse spleen, lung and colon were fixed using 10% formalin and embedded in paraffin. Paraffin sections were cut to a thickness of 4 μm, and H&E(hematoxylin and eosin) staining was performed. The histopathological score was measured in accordance with the criteria described in Osuchowski M F, et al., Journal of Immunology, 177(3):1967-74(2006); and Liu W, et al., Cell Research, 25(6): 691-706(2015).
# The sandwich ELISAs and MPO assay were performed according to conventional methods in this field. TNF-α, IL-6, IL-1β, IL-18 ELISA(sandwich ELISAs) were performed using BD OptEIA ELISA Kit and MPO assay was performed using MPO Activity assay kit(ab105136) of Abcam company.
# The data obtained from independent experiment (means±SD) was analyzed by using two-tailed Student's t-test. The differences were considered significant in p<0.05. For survival comparison, the results were graphically described and analyzed according to kaplan-Meier survival analysis, that is, the product-limit method, using log-rank(Mantel-Cox) tests (Prism, version 5.0, GraphPad Software).
# [5] = system: primary bone marrow-derived macrophages (BMDMs); experiment: ATP measurement in LPS-activated macrophages; format: cell-based, C57BL/6 mouse; conditions: LPS + 1, 5, 10 μM compound
# Experimental: The primary bone marrow-derived macrophages (BMDMs) isolated from C57BL/6 mouse were incubated in DMEM medium involving macrophage colony-stimulating factor (M-CSF; R&D Systems, 416-ML) during 3 to 5 days. ATP content in the cell was measured through using ATP colorimetric/fluorometric kit after activation of macrophages by treatment of 100 ng/mL LPS in DMEM medium including […]. All assays were performed according to the manufacturer's product manual.
# FIGS. 13 to 17 show the measurement of ATP amounts in the macrophage when treated with Compounds 6, 16, 17, 22 and 27 respectively (in order from left in the figure: Untreatment, LPS/ATP, LPS/ATP+1 μM compound, LPS/ATP+5 μM compound, and LPS/ATP+10 μM compound).
# [6] = system: primary bone marrow-derived macrophages (BMDMs); experiment: Mitochondrial reactive oxygen species measurement (MitoSox, FACS); format: cell-based, C57BL/6 mouse; conditions: LPS/ATP + 1, 5, 10 μM compound
# Experimental: The primary bone marrow-derived macrophages (BMDMs) isolated from C57BL/6 mouse were incubated in DMEM medium involving macrophage colony-stimulating factor (M-CSF; R&D Systems, 416-ML) during 3 to 5 days. Isolated BMDMs were stained by 1 μM MitoSox (Molecular Probes M36008) for 15 min. After washing the cells into PBS and collecting the cells, mitochondrial reactive oxygen species was measured by FACS.
# FIGS. 11 and 12 show mitochondrial reactive oxygen species changes in the macrophage when treated with compounds 6 and 27, respectively (in order from left in the figure: Untreatment, LPS/ATP, LPS/ATP+1 μM compound, LPS/ATP+5 μM compound, and LPS/ATP+10 μM compound).
# [7] = colon tissue homogenate, treated during 20 days
# [8] = treated during 10 days, vs non-treated mouse
# NQO1, sequence (P15559 whole entry, species assumed): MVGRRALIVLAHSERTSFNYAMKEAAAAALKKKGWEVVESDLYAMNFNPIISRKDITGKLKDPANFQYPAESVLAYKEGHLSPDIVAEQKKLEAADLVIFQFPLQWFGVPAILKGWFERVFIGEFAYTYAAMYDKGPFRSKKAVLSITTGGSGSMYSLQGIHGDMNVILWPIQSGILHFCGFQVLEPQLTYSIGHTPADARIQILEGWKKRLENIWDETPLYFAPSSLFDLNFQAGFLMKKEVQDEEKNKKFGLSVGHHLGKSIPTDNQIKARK
compound,measurement,setting,value
O=C1C(=O)c2c(n(-c3ccccc3)[nH]c2=O)-c2ccccc21 [Compound 1],NQO1 Activity,NQO1; Compound 5 μM,180 nmol of reduced Cytochrome C/min/μg NQO1 Protein
CC(C)Oc1nn(-c2ccccc2)c2c1C(=O)C(=O)c1ccccc1-2 [Compound 2],NQO1 Activity,NQO1; Compound 0.2 μM,3531 nmol of reduced Cytochrome C/min/μg NQO1 Protein
CC(C)n1c(=O)c2c(n1C)-c1ccccc1C(=O)C2=O [Compound 3],NQO1 Activity,NQO1; Compound 5 μM,3066 nmol of reduced Cytochrome C/min/μg NQO1 Protein
Cn1c(=O)c2c(n1-c1ccccc1)-c1ccccc1C(=O)C2=O [Compound 5],NQO1 Activity,NQO1; Compound 5 μM,2602 nmol of reduced Cytochrome C/min/μg NQO1 Protein
COc1nn(-c2ccccc2)c2c1C(=O)C(=O)c1ccccc1-2 [Compound 6],NQO1 Activity,NQO1; Compound 0.2 μM,3782 nmol of reduced Cytochrome C/min/μg NQO1 Protein
same,NQO1 Activity,NQO1; Compound 5 μM,7706 nmol of reduced Cytochrome C/min/μg NQO1 Protein
same,NAD+ production,[1],increased in dose-dependent manner
same,NAD+/NADH ratio,[2],increased in dose-dependent manner
same,overall mitochondrial OCR,[3],increased
same,MPO activity,[4]; [7],decreased
same,"cytokine expressions (TNF-α, IL-6, IL-1β and IL-18, ELISA)",[4]; [7],decreased
same,expressions of sirtuin 1 and sirtuin 7,[4]; [7],significantly increased
same,"histological finding of colon tissue (immunohistochemistry, histological score, H&E)","[4]; treated during 7 days, vs non-treated colon tissue",significantly improved than non-treated colon tissue
same,"colitis clinic scores (body weight, stool consistency, bleeding combined)",[4]; [8],significantly ameliorated compared with non-treated mouse
same,degree of body weight loss,[4]; [8],significantly slower than non-treated mouse
same,survival rates,"[4]; treated during 20 days, vs non-treated mouse",higher than non-treated mouse
same,ATP amounts,[5],increased in dose-dependent manner
same,mitochondrial reactive oxygen species amounts,[6],decreased in dose-dependent manner
CCn1c(=O)c2c(n1-c1ccccc1)-c1ccccc1C(=O)C2=O [Compound 7],NQO1 Activity,NQO1; Compound 0.2 μM,2246 nmol of reduced Cytochrome C/min/μg NQO1 Protein
CCOc1nn(-c2ccccc2)c2c1C(=O)C(=O)c1ccccc1-2 [Compound 8],NQO1 Activity,NQO1; Compound 0.2 μM,3768 nmol of reduced Cytochrome C/min/μg NQO1 Protein
CC(C)Cn1c(=O)c2c(n1-c1ccccc1)-c1ccccc1C(=O)C2=O [Compound 9],NQO1 Activity,NQO1; Compound 0.2 μM,2474 nmol of reduced Cytochrome C/min/μg NQO1 Protein
CC(C)COc1nn(-c2ccccc2)c2c1C(=O)C(=O)c1ccccc1-2 [Compound 10],NQO1 Activity,NQO1; Compound 0.2 μM,3455 nmol of reduced Cytochrome C/min/μg NQO1 Protein
CC(C)CCn1c(=O)c2c(n1-c1ccccc1)-c1ccccc1C(=O)C2=O [Compound 11],NQO1 Activity,NQO1; Compound 0.2 μM,2839 nmol of reduced Cytochrome C/min/μg NQO1 Protein
CC(C)CCOc1nn(-c2ccccc2)c2c1C(=O)C(=O)c1ccccc1-2 [Compound 12],NQO1 Activity,NQO1; Compound 0.2 μM,2981 nmol of reduced Cytochrome C/min/μg NQO1 Protein
CC(C)n1c(=O)c2c(n1-c1ccccc1)-c1ccccc1C(=O)C2=O [Compound 13],NQO1 Activity,NQO1; Compound 0.2 μM,2137 nmol of reduced Cytochrome C/min/μg NQO1 Protein
CC(C)n1c2c(c(=O)n1C)C(=O)C(=O)c1ccccc1-2 [Compound 16],NQO1 Activity,NQO1; Compound 0.2 μM,4441 nmol of reduced Cytochrome C/min/μg NQO1 Protein
same,NAD+ production,[1],increased in dose-dependent manner
same,NAD+/NADH ratio,[2],increased in dose-dependent manner
COc1nn(C(C)C)c2c1C(=O)C(=O)c1ccccc1-2 [Compound 17],NQO1 Activity,NQO1; Compound 0.2 μM,5843 nmol of reduced Cytochrome C/min/μg NQO1 Protein
same,NAD+ production,[1],increased in dose-dependent manner
same,NAD+/NADH ratio,[2],increased in dose-dependent manner
COc1nn(-c2ccc(C(F)(F)F)cc2)c2c1C(=O)C(=O)c1ccccc1-2 [Compound 18],NQO1 Activity,NQO1; Compound 0.2 μM,4232 nmol of reduced Cytochrome C/min/μg NQO1 Protein
COc1nn(-c2ccc(F)cc2)c2c1C(=O)C(=O)c1ccccc1-2 [Compound 19],NQO1 Activity,NQO1; Compound 0.2 μM,4303 nmol of reduced Cytochrome C/min/μg NQO1 Protein
Cn1c2c(c(=O)n1-c1ccccc1)C(=O)C(=O)c1ccccc1-2 [Compound 20],NQO1 Activity,NQO1; Compound 0.2 μM,568 nmol of reduced Cytochrome C/min/μg NQO1 Protein
Cn1c(=O)c2c(n1-c1ccccc1)-c1ccc(F)cc1C(=O)C2=O [Compound 21],NQO1 Activity,NQO1; Compound 0.2 μM,1426 nmol of reduced Cytochrome C/min/μg NQO1 Protein
COc1nn(-c2ccccc2)c2c1C(=O)C(=O)c1cc(F)ccc1-2 [Compound 22],NQO1 Activity,NQO1; Compound 0.2 μM,6978 nmol of reduced Cytochrome C/min/μg NQO1 Protein
same,NAD+ production,[1],increased in dose-dependent manner
same,NAD+/NADH ratio,[2],increased in dose-dependent manner
COc1cn(-c2ccccc2)c2c1C(=O)C(=O)c1cc([N+](=O)[O-])ccc1-2 [Compound 23],NQO1 Activity,NQO1; Compound 0.2 μM,456 nmol of reduced Cytochrome C/min/μg NQO1 Protein
COc1nn(-c2ccccc2)c2c1C(=O)C(=O)c1cc(N)ccc1-2 [Compound 24],NQO1 Activity,NQO1; Compound 0.2 μM,4336 nmol of reduced Cytochrome C/min/μg NQO1 Protein
COc1cn(-c2ccccc2)c2c1C(=O)C(=O)c1cc(Br)ccc1-2 [Compound 25],NQO1 Activity,NQO1; Compound 0.2 μM,1676 nmol of reduced Cytochrome C/min/μg NQO1 Protein
